Experimental data taken from US11976075B2, “Inhibitors of the MYST family of lysine acetyl transferases” (Isosterix, Inc., priority 2022, dated 2024).
Like-named read-outs stand apart in the source and are kept apart here.

Biological target: T1, Recombinant KAT6A/MOZ (488-778) protein (Homo sapiens, UniProt Q92794)
T1 construct: Recombinant KAT6A/MOZ (488-778) protein (Active motif, Catalog #81223); purchased Active Motif 81223
Assay: Kat6a AlphaLISA Inhibition Screening Assay
Format: biochemical
Procedure: The Kat6a inhibitory activity of test compounds was determined using an Alpha Screen-based detection method. The assay reactions were conducted in a volume of 10 μL in Alpha Plate, White 384 well plate (cat #6008280, Perkin Elmer). The enzymatic reactions were performed in assay buffer pH 8.0 (50 mM Tris-HCl, 0.1 mM EDTA, 0.01% Tween-20, 1 mM Dithiothreitol, 0.1% BSA (fatty acid free) and 330 nM TSA (Trichostatin A)). 10 μL reaction volume consisting of 25 nM of Recombinant KAT6A/MOZ (488-778) protein (Active motif, Catalog #81223), 400 nM Acetyl coenzyme A (Catalog #A2056, Sigma), 200 nM of Histone H3 peptide [(amino acids 1-21), biotin-labeled (BPS Biosciences, Catalog #52011,)] and a 10-point dose response curve for test/tool compounds were prepared. Enzyme and compounds solution were pre-incubated in assay plate for 60 or 10 min at room temperature then substrate and Acetyl coenzyme A solution were added to the plate. After addition, the plate was sealed with adhesive seals and incubated for 120 minutes at room temperature.
After 120 minutes of incubation, 5 μL (10 μg/mL) of AlphaLISA anti-acetyl-Lysine acceptor beads (Perkin Elmer, Catalog #AL143C) were added to the plate and it was incubated for 60 minutes at room temperature. Then 10 μL (10 μg/mL) of Alpha Streptavidin donor beads (Perkin Elmer, Catalog #6760002S) were added to the plate which was further incubated for 60 minutes at room temperature. After incubation, the alpha signal was recorded by using Perkin Elmer Envision multi-mode reader.
NA means the compound was not active at the concentration tested. […] NT means not tested.

[1] = 60′ pre-incubation, Table 2, read-out: Kat6A biochemical assay: IC50
[2] = 10′ pre-incubation, Table 3, read-out: Kat6A Biochemical assay: IC50
[3] = 60′ pre-incubation, Table 3, read-out: Kat6A Biochemical assay: IC50
[4] = 10′ pre-incubation, Table 2, read-out: Kat6A biochemical assay: IC50

T1 sequence (Q92794 488-778): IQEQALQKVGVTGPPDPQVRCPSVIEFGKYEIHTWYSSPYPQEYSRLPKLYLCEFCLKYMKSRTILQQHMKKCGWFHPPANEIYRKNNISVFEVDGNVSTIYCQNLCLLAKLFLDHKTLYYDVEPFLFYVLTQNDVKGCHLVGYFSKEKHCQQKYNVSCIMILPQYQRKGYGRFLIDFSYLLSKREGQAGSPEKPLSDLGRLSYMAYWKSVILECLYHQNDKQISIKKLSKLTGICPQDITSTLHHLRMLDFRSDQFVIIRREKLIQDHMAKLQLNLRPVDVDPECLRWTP

| IC50 [1] [µM] | SMILES | further results |
| --- | --- | --- |
| ≤ 10 | C=CC(=O)NCc1ccnc(-c2cc(C)cc(C(=O)NNS(=O)(=O)c3c(OC)cccc3OC)c2)c1 [Synthetic Example 15, N-((2-(3-(2-((2,6-dimethoxyphenyl)sulfonyl)hydrazine-1-carbonyl)-5-methylphenyl)pyridin-4-yl)methyl)acrylamide] |  |
| ≤ 10 | C#CC(=O)NCc1cnn(Cc2cc(OC)c3c(NS(=O)(=O)c4ccc(C(=O)NC)cc4OC)noc3c2)c1 [Synthetic Example 46, 3-methoxy-4-(N-(4-methoxy-6-((4-(propiolamidomethyl)-1H-pyrazol-1-yl)methyl)benzo[d]isoxazol-3-yl)sulfamoyl)-N-methylbenzamide] |  |
| ≤ 10 | C#CC(=O)NCC(=O)NCc1cnn(Cc2cc(OC)c3c(NS(=O)(=O)c4ccccc4OC)noc3c2)c1 [Synthetic Example 60, N-(2-(((1-((4-methoxy-3-((2-methoxyphenyl)sulfonamido)benzo[d]isoxazol-6-yl)methyl)-1H-pyrazol-4-yl)methyl)amino)-2-oxoethyl)propiolamide] |  |
|  | COc1cc(Cn2ccc(CN)n2)cc2onc(NS(=O)(=O)CC3CCCCC3)c12 [compound 128] | IC50 [2]: 20 to 50 µM |
|  | C=CS(=O)(=O)NC1CCN(Cc2cc(OC)c3c(NS(=O)(=O)c4ccccc4OC)noc3c2)CC1 [compound 77, 2-methoxy-N-(4-methoxy-6-((4-(vinylsulfonamido)piperidin-1-yl)methyl)benzo[d]isoxazol-3-yl)benzenesulfonamide] | IC50 [3]: ≤ 10 µM |
| ≤ 10 | C=CC(=O)N(C)Cc1cnn(Cc2cc(OC)c3c(NS(=O)(=O)c4ccccc4OC)noc3c2)c1 [Synthetic Example 47, N-((1-((4-methoxy-3-((2-methoxyphenyl)sulfonamido)benzo[d]isoxazol-6-yl)methyl)-1H-pyrazol-4-yl)methyl)-N-methylacrylamide] |  |
|  | C#CC(=O)NCc1ccc2cc(C(=O)NS(=O)(=O)c3ccccc3F)oc2c1 [Synthetic Example 11, N-((2-fluorophenyl)sulfonyl)-6-(propiolamidomethyl)benzofuran-2-carboxamide] | IC50 [4]: 20 to 50 µM |
|  | C#CC(=O)NCCOCc1cc(OC)c2c(NS(=O)(=O)c3cc(CC)ccc3OC)noc2c1 [compound 88, N-(2-((3-((5-ethyl-2-methoxyphenyl)sulfonamido)-4-methoxybenzo[d]isoxazol-6-yl)methoxy)ethyl)propiolamide] | IC50 [3]: ≤ 10 µM |
| ≤ 10 | C=CS(=O)(=O)N1C[C@H]2CN(Cc3cc(OC)c4c(NS(=O)(=O)c5ccccc5OC)noc4c3)C[C@H]2C1 [Synthetic Example 59] |  |
|  | C=CC(=O)NCc1ccnc(-c2cc(C)cc(C(=O)NNS(=O)(=O)c3ccccc3F)c2)c1 [compound 12] | IC50 [4]: ≤ 10 µM |
| ≤ 10 | C=CC(=O)N1Cc2cnn(Cc3cc(OC)c4c(NS(=O)(=O)CC5CCCCC5)noc4c3)c2C1 [Synthetic Example 29A, N-(6-((5-acryloyl-5,6-dihydropyrrolo[3,4-c]pyrazol-1(4H)-yl)methyl)-4-methoxybenzo[d]isoxazol-3-yl)-1-cyclohexylmethanesulfonamide] |  |
|  | C#CC(=O)N1CCN(c2ncc(-c3cc(OC)c4c(NS(=O)(=O)c5c(OC)cccc5OC)noc4c3)s2)CC1 [compound 106, 2,6-dimethoxy-N-(4-methoxy-6-(2-(4-propioloylpiperazin-1-yl)thiazol-5-yl)benzo[d]isoxazol-3-yl) benzenesulfonamide] | IC50 [3]: ≤ 10 µM |
|  | C=CS(=O)(=O)NCCCOCc1cc(OC)c2c(NS(=O)(=O)c3cc(CC)ccc3OC)noc2c1 [compound 90, 5-ethyl-2-methoxy-N-(4-methoxy-6-((3-(vinylsulfonamido)propoxy)methyl)benzo[d]isoxazol-3-yl)benzenesulfonamide] | IC50 [3]: ≤ 10 µM |
|  | C#CC(=O)N1CCN(c2csc(-c3cc(OC)c4c(NS(=O)(=O)c5c(OC)cccc5OC)noc4c3)n2)CC1 [compound 118, 2,6-dimethoxy-N-(4-methoxy-6-(4-(4-propioloylpiperazin-1-yl)thiazol-2-yl)benzo[d]isoxazol-3-yl)benzenesulfonamide] | IC50 [3]: ≤ 10 µM |
| ≤ 10 | C#CC(=O)NCc1ccnc(-c2cc(C)cc(C(=O)NNS(=O)(=O)c3c(OC)cccc3OC)c2)c1 [Synthetic Example 16, N-((2-(3-(2-((2,6-dimethoxyphenyl)sulfonyl)hydrazine-1-carbonyl)-5-methylphenyl)pyridin-4-yl)methyl)propiolamide] |  |
|  | C#CC(=O)N1CC[C@H](OCc2cc(OC)c3c(NS(=O)(=O)c4cc(CC)ccc4OC)noc3c2)C1 [compound 109, (S)-5-ethyl-2-methoxy-N-(4-methoxy-6-(((1-propioloylpyrrolidin-3-yl)oxy)methyl)benzo[d]isoxazol-3-yl) benzenesulfonamide] | IC50 [3]: ≤ 10 µM |
|  | C#CC(=O)NCc1cnn(Cc2cc(OC)c3c(NS(=O)(=O)c4cc(C(=O)NC)ccc4OC)noc3c2)c1 [compound 85, 4-methoxy-3-(N-(4-methoxy-6-((4-(propiolamidomethyl)-1H-pyrazol-1-yl)methyl)benzo[d]isoxazol-3-yl)sulfamoyl)-N-methylbenzamide] | IC50 [3]: ≤ 10 µM |
|  | C=CC(=O)N1CCC(C(=O)NCc2ccc3cc(C(=O)NS(=O)(=O)c4ccccc4F)oc3c2)CC1 [Synthetic Example 14, 1-acryloyl-N-((2-(((2-fluorophenyl)sulfonyl)carbamoyl)benzofuran-6-yl)methyl)piperidine-4-carboxamide] | IC50 [4]: 20 to 50 µM |
|  | C=CC(=O)NCc1ccc2cc(C(=O)NS(=O)(=O)c3ccccc3F)oc2c1 [Synthetic Example 10, 6-(acrylamidomethyl)-N-((2-fluorophenyl)sulfonyl)benzofuran-2-carboxamide] | IC50 [4]: ≤ 10 µM |
|  | COc1cc(Cn2cccn2)cc2[nH]nc(NS(=O)(=O)c3ccccc3F)c12 [compound 124, N-(6-((1H-pyrazol-1-yl)methyl)-4-methoxy-1H-indazol-3-yl)-2-fluorobenzenesulfonamide] | IC50 [2]: 20 to 50 µM |
| ≤ 10 | C=CS(=O)(=O)NCc1ccn(Cc2cc(OC)c3c(NS(=O)(=O)c4c(OC)cccc4OC)noc3c2)n1 [Synthetic Example 19, 2,6-dimethoxy-N-(4-methoxy-6-((3-(vinylsulfonamidomethyl)-1H-pyrazol-1-yl)methyl)benzo[d]isoxazol-3-yl)benzenesulfonamide] |  |
| ≤ 10 | COc1ccccc1S(=O)(=O)Nc1noc2cc(Cn3cc(CNS(=O)(=O)c4c(F)c(F)c(F)c(F)c4F)cn3)cc(OC)c12 [compound 70, 2,3,4,5,6-pentafluoro-N-((1-((4-methoxy-3-((2-methoxyphenyl)sulfonamido)benzo[d]isoxazol-6-yl)methyl)-1H-pyrazol-4-yl)methyl)benzenesulfonamide] |  |
| 10 to 20 | COc1cc(Cn2cc3c(n2)CNC3)cc2onc(NS(=O)(=O)CC3CCCCC3)c12 [Synthetic Example 28B, 1-cyclohexyl-N-(6-((5,6-dihydropyrrolo[3,4-c]pyrazol-2(4H)-yl)methyl)-4-methoxybenzo[d]isoxazol-3-yl)methanesulfonamide] |  |
| ≤ 10 | C#CC(=O)NCc1ccnc(-c2cc(C)cc(C(=O)NNS(=O)(=O)c3cccc(C(=O)NC)c3)c2)c1 [Synthetic Example 55, N-methyl-3-[[[3-methyl-5-[4-[(prop-2-ynoylamino)methyl]-2-pyridyl]benzoyl]amino]sulfamoyl] benzamide] |  |
|  | C=CS(=O)(=O)NCC(=O)NCc1cnn(Cc2cc(OC)c3c(NS(=O)(=O)c4cc(CC)ccc4OC)noc3c2)c1 [compound 93, N-((1-((3-((5-ethyl-2-methoxyphenyl)sulfonamido)-4-methoxybenzo[d]isoxazol-6-yl)methyl)-1H-pyrazol-4-yl)methyl)-2-(vinylsulfonamido) acetamide] | IC50 [3]: ≤ 10 µM |
| ≤ 10 | C#CC(=O)NCc1cnn(Cc2cc(OC)c3c(NS(=O)(=O)c4ccc(C(=O)OC)cc4)noc3c2)c1 [Synthetic Example 38, methyl 4-(N-(4-methoxy-6-((4-(propiolamidomethyl)-1H-pyrazol-1-yl)methyl)benzo[d]isoxazol-3-yl)sulfamoyl)benzoate] |  |
| ≤ 10 | C=C(F)C(=O)NCc1ccn(Cc2cc(OC)c3c(NS(=O)(=O)CC4CCCCC4)noc3c2)n1 [Synthetic Example 23, N-((1-((3-((cyclohexylmethyl)sulfonamido)-4-methoxybenzo[d]isoxazol-6-yl)methyl)-1H-pyrazol-3-yl)methyl)-2-fluoroacrylamide] |  |
| ≤ 10 | COc1cc(Cn2cc3c(n2)CN(C(=O)C#CCN(C)C)C3)cc2onc(NS(=O)(=O)CC3CCCCC3)c12 [Synthetic Example 3, 1-cyclohexyl-N-(6-((5-(4-(dimethylamino)but-2-ynoyl)-5,6-dihydropyrrolo[3,4-c]pyrazol-2(4H)-yl)methyl)-4-methoxybenzo[d]isoxazol-3-yl)methanesulfonamide] |  |
